# Experimental data taken from the Kinase Knowledgebase extract (Sharma et al. 2016).
# Target: PIK3CA (human) (UniProt P42336)
# Test: Inhibition of PIK3CA Kinase Activity
# PIK3CA (human), sequence (P42336 whole entry, looked up): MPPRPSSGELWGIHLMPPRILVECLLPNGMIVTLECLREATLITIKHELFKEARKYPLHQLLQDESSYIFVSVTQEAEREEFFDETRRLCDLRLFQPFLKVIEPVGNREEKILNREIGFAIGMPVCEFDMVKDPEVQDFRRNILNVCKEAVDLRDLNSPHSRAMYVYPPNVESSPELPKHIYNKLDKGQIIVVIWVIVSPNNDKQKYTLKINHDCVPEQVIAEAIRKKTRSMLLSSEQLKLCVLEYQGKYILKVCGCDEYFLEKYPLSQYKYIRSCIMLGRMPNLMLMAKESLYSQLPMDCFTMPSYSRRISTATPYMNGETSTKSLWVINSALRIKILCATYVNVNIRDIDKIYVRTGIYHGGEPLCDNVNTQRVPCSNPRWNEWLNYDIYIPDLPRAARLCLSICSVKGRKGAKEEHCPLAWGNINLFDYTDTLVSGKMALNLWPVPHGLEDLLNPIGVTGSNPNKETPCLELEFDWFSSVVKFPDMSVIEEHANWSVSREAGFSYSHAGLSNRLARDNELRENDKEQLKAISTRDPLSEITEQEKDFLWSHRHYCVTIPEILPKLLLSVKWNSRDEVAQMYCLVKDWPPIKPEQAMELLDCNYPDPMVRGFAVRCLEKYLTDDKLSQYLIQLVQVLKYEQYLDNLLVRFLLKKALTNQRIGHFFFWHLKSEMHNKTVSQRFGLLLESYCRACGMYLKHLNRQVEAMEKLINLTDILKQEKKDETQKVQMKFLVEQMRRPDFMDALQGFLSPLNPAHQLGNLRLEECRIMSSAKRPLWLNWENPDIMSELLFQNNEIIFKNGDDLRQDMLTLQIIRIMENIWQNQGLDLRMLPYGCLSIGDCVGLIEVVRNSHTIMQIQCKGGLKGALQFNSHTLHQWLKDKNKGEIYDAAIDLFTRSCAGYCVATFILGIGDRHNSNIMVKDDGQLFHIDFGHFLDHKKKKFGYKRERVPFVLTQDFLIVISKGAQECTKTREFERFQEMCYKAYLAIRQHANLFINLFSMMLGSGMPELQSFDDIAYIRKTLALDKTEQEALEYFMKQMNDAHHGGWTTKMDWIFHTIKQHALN
row,SMILES,IC50
1,CCNc1nc2ccc(-c3ccc4c(c3)CN(c3ccnc5cc(F)ccc35)CCO4)cc2[nH]1,≤ 0.01 µM
2,COc1ccc2c(N3CCOc4ccc(-c5cnc(Cl)c(NS(C)(=O)=O)c5)cc4C3)ncnc2c1,≤ 0.01 µM
3,CCNc1nc2ccc(-c3ccc4c(c3)CN(c3ncnc5cc(F)ccc35)CCO4)cc2[nH]1,≤ 0.01 µM
4,COCCOCc1nc2c(c(N3CCOc4ccc(-c5cnc6nc(C)[nH]c6c5)cc4C3)n1)CC(C)(C)CC2,0.01 to 0.05 µM
5,Cc1nc2ccc(-c3ccc4c(c3)CN(c3ncnc5ccc(F)cc35)CCO4)cc2[nH]1,0.05 to 0.25 µM
6,Cc1nc2ncc(-c3ccc4c(c3)CN(c3ncnc(C)c3C)CCO4)cc2[nH]1,0.05 to 0.25 µM
7,CC1(C)CCc2ncnc(N3CCOc4ccc(-c5cnc6nc[nH]c6c5)cc4C3)c2C1,0.01 to 0.05 µM
8,O=C(CCCN1CCCCC1)Nc1nc2ccc(-c3ccc4c(c3)CN(c3ccnc5ccccc35)CCO4)cc2[nH]1,0.05 to 0.25 µM
9,Cc1nc2ncc(-c3ccc4c(c3)CN(c3ncnc(NC(C)C)c3C)CCO4)cc2[nH]1,0.01 to 0.05 µM
10,Nc1nc2ncc(-c3ccc4c(c3)CN(c3ncnc5cccnc35)CCO4)cc2[nH]1,0.01 to 0.05 µM
11,CCSc1nc2c(c(N3CCOc4ccc(-c5ccc6nc(C)[nH]c6c5)cc4C3)n1)CCC2,0.25 to 1 µM
12,COc1ccc2c(N3CCOc4ccc(-c5ccc6c(c5)CC(=O)N6)cc4C3)nc(C)nc2c1,0.25 to 1 µM
13,COc1ccc2c(N3CCOc4ccc(-c5ccc(-c6nc7ccccc7[nH]6)cc5)cc4C3)nc(C)nc2c1,0.25 to 1 µM
14,Cc1nc2cc(-c3ccc4c(c3)CN(c3ncnc5c3CC3(CC5)CC3)CCO4)cnc2[nH]1,0.01 to 0.05 µM
15,CCc1nc2ncc(-c3ccc4c(c3)CN(c3nc(C)nc5c3CC(C)(C)CC5)CCO4)cc2[nH]1,0.01 to 0.05 µM
16,Cc1nc2ncc(-c3ccc4c(c3)CN(c3nc(CN5CCCCC5)nc5c3CC(C)(C)CC5)CCO4)cc2[nH]1,≤ 0.01 µM
17,C[C@H](CO)CS(=O)(=O)c1cc(-c2ccc3c(c2)CN(c2ncnc4c2CC(C)(C)CC4)CCO3)cnc1N,0.01 to 0.05 µM
18,Cc1nc(C)c(CC2CC2)c(N2CCOc3ccc(-c4cnc5nc(C6CC6)[nH]c5c4)cc3C2)n1,0.01 to 0.05 µM
19,COc1cc2c(N3CCOc4ccc(-c5cnc6nc(N)[nH]c6c5)cc4C3)ncnc2cc1Br,0.01 to 0.05 µM
20,COc1ccc2c(N3CCOc4ccc(-c5ccc6[nH]c(=O)[nH]c6c5)cc4C3)nc(C)nc2c1,0.25 to 1 µM
21,CCNc1nc2ccc(-c3ccc4c(c3)CN(c3cc(Nc5ccc(OC)cc5)ncn3)CCO4)cc2[nH]1,0.25 to 1 µM
22,Cc1ncnc(N2CCOc3ccc(-c4ccc(N)nn4)cc3C2)c1Cc1ccc(F)cc1,0.25 to 1 µM

row,SMILES,IC50
1,COC(=O)Nc1nc2ccc(-c3ccc4c(c3)CN(c3ccnc5ccccc35)CCO4)cc2n1C,0.25 to 1 µM
2,Cc1nc2ncc(-c3ccc4c(c3)CN(c3ncnc5c3CCC(C(C)O)C5)CCO4)cc2[nH]1 (configuration not stated),0.01 to 0.05 µM
3,COc1c(OCc2ccccc2)ccc2c(N3CCOc4ccc(-c5ccc6nc(C)[nH]c6c5)cc4C3)ncnc12,0.01 to 0.05 µM
4,Cc1nc2ncc(-c3ccc4c(c3)CN(c3ncnc5c3CC(C)CC5)CCO4)cc2[nH]1 (configuration not stated),0.01 to 0.05 µM
5,CC1(C)CCc2ncnc(N3CCOc4ccc(-c5cnc(N)c(S(=O)(=O)NCCO)c5)cc4C3)c2C1,≤ 0.01 µM
6,Cc1nc(N2CCOc3ccc(-c4ccc5nc(C)[nH]c5c4)cc3C2)c2ccccc2n1,0.01 to 0.05 µM
7,CC1(C)CCc2ncnc(N3CCOc4ccc(-c5cnc6sc(N)nc6c5)cc4C3)c2C1,0.01 to 0.05 µM
8,CCNc1nc2ncc(-c3ccc4c(c3)CN(c3nc(C)nc5cc(OC)ccc35)CCO4)cc2[nH]1,≤ 0.01 µM
9,CC(N)CNS(=O)(=O)c1cc(-c2ccc3c(c2)CN(c2ncnc4c2CC(C)(C)CC4)CCO3)cnc1N (configuration not stated),0.05 to 0.25 µM
10,CC1=Cc2ncnc(N3CCOc4ccc(-c5cnc(N)c(S(=O)(=O)NCC6CCN(C)CC6)c5)cc4C3)c2CC1(C)C,0.05 to 0.25 µM
11,Nc1ccc(-c2ccc3c(c2)CN(c2ccnc4ccccc24)CCO3)cn1,0.05 to 0.25 µM
12,CC1(C)CCc2ncnc(N3CCOc4ccc(-c5cnc(N)nc5)cc4C3)c2C1,0.25 to 1 µM
13,CCC1CCc2ncnc(N3CCOc4ccc(-c5cnc6nc(C)[nH]c6c5)cc4C3)c2C1 (configuration not stated),0.01 to 0.05 µM
14,CCN(Cc1nc2c(c(N3CCOc4ccc(-c5cnc6nc(C)[nH]c6c5)cc4C3)n1)CC(C)(C)CC2)C(C)C,0.01 to 0.05 µM
15,CC[C@H]1CCc2c(ncnc2N2CCOc3ccc(-c4cnc(N)c(S(=O)(=O)N5CCC(C)(N)C5)c4)cc3C2)C1 (some centres not stated),0.01 to 0.05 µM
16,CC1=C(C)C(C)(C)Cc2c1ncnc2N1CCOc2ccc(-c3cnc4nc(C)[nH]c4c3)cc2C1,0.01 to 0.05 µM
17,Cc1nc2ccc(-c3ccc4c(c3)CN(c3ncnc5ccc(S(C)(=O)=O)cc35)CCO4)cc2[nH]1,0.25 to 1 µM
18,CC[C@H](C)NCc1nc2c(c(N3CCOc4ccc(-c5cnc6nc(C)[nH]c6c5)cc4C3)n1)CC(C)(C)CC2,0.01 to 0.05 µM
19,Cc1nc2ccc(-c3ccc4c(c3)CN(c3ncnc5ccc(O)cc35)CCO4)cc2[nH]1,0.05 to 0.25 µM
20,C=C[C@H]1CCCc2c(ncnc2N2CCOc3ccc(-c4cnc5nc(C)[nH]c5c4)cc3C2)C1,0.01 to 0.05 µM
21,CC[C@H]1CCCc2c(ncnc2N2CCOc3ccc(-c4cnc5nc(C)[nH]c5c4)cc3C2)C1,0.01 to 0.05 µM
22,CN(C)S(=O)(=O)c1cncc(-c2ccc3c(c2)CN(c2ncnc4c2CC(C)(C)CC4)CCO3)c1,0.05 to 0.25 µM

row,SMILES,IC50
1,Cc1nc2cc(-c3ccc4c(c3)CN(c3nc(CN(C)C)nc(C)c3Cc3ccc(F)cc3)CCO4)ccc2[nH]1,≤ 0.01 µM
2,CNC(=O)c1ccc(-c2ccc3c(c2)CN(c2ncnc(C)c2Cc2ccc(F)cc2)CCO3)cc1,0.01 to 0.05 µM
3,Cc1nc2ncc(-c3ccc4c(c3)CN(c3nc(CN(C)C)nc5c3CC(C)(C)CC5)CCO4)cc2[nH]1,≤ 0.01 µM
4,COc1ccc(-c2ccc3c(c2)CN(c2nc(CN(C)C)nc4c2CC(C)(C)CC4)CCO3)cc1Cl,0.25 to 1 µM
5,COC1Cc2nc(CN(C)C)nc(N3CCOc4ccc(-c5cnc6nc(C)[nH]c6c5)cc4C3)c2CC1(C)C (configuration not stated),≤ 0.01 µM
6,COc1cc2ncnc(N3CCOc4ccc(-c5cnc6nc(N)[nH]c6c5)cc4C3)c2cc1OC,≤ 0.01 µM
7,Cc1nc2cc(-c3ccc4c(c3)CN(c3nc(CN5CCCC5)nc5c3CC(C)(C)CC5)CCO4)ccc2[nH]1,≤ 0.01 µM
8,CC1=Cc2ncnc(N3CCOc4ccc(-c5cnc(N)c(S(=O)(=O)NC[C@H]6CCN(C)C6)c5)cc4C3)c2CC1(C)C,0.01 to 0.05 µM
9,c1ccc2c(N3CCOc4ccc(-c5cn[nH]c5)cc4C3)ccnc2c1,0.25 to 1 µM
10,COC(=O)Nc1nc2ccc(-c3ccc4c(c3)CN(c3ncnc5cc(OC)c(OC)cc35)CCO4)cc2[nH]1,0.01 to 0.05 µM
11,Cc1nc2cc(-c3ccc4c(c3)CN(c3nc(C(C)N(C)C)nc5c3CC(C)(C)CC5)CCO4)cnc2[nH]1 (configuration not stated),0.01 to 0.05 µM
12,Cc1nc2ncc(-c3ccc4c(c3)CN(c3ncnc5c3CC(C)(C)C=C5)CCO4)cc2[nH]1,0.01 to 0.05 µM
13,Cc1nc2ccc(-c3ccc4c(c3)CN(c3ncnc(C)c3Cc3ccc(Cl)c(N(C)C)c3)CCO4)cc2[nH]1,0.01 to 0.05 µM
14,Cc1nc2c(c(N3CCOc4ccc(-c5cnc6nc(C)[nH]c6c5)cc4C3)n1)CC(C)CC2 (configuration not stated),0.01 to 0.05 µM
15,Cc1nc2ccc(-c3ccc4c(c3)CN(c3ncnc5ccc(I)cc35)CCO4)cc2[nH]1,0.05 to 0.25 µM
16,COCCc1c(C)nc(CN(C)C)nc1N1CCOc2ccc(-c3ccc4nc(C)[nH]c4c3)cc2C1,≤ 0.01 µM
17,COc1ccc2c(N3CCOc4ccc(-c5ccc(-c6ncc[nH]6)cc5)cc4C3)nc(C)nc2c1,≤ 0.01 µM
18,CC1(C)CCc2ncnc(N3CCOc4ccc(-c5cnc(N)c(S(=O)(=O)N6C[C@@H]7C[C@H]6CN7)c5)cc4C3)c2C1,0.01 to 0.05 µM
19,CCNS(=O)(=O)c1cc(-c2ccc3c(c2)CN(c2ncnc4c2CC(C)(C)CC4)CCO3)cnc1N,0.01 to 0.05 µM
20,CC[C@H]1CCc2c(nc(C)nc2N2CCOc3ccc(-c4cnc5nc(NC(=O)OC)[nH]c5c4)cc3C2)C1,≤ 0.01 µM
21,CC1(C)CCc2ncnc(N3CCOc4ccc(-c5cnc(N)c(S(=O)(=O)O)c5)cc4C3)c2C1,0.05 to 0.25 µM
22,COC(=O)Nc1nc2ncc(-c3ccc4c(c3)CN(c3ccnc5cc(OC)c(OC)cc35)CCO4)cc2[nH]1,0.01 to 0.05 µM

row,SMILES,IC50
1,CC1(C)CCc2ncnc(N3CCOc4ccc(-c5cnc(N)c(S(=O)(=O)NC6CNC6)c5)cc4C3)c2C1,0.01 to 0.05 µM
2,COc1ccc2c(N3CCOc4ccc(-c5ccc(N)nc5)cc4C3)nc(C)nc2c1,0.05 to 0.25 µM
3,Cc1nc(CN(C)C)nc(N2CCOc3ccc(-c4cnc5sc(N)nc5c4)cc3C2)c1CC1CC1,≤ 0.01 µM
4,Cc1nc2ncc(-c3ccc4c(c3)CN(c3nc(CNCC(C)C)nc5c3CC(C)(C)CC5)CCO4)cc2[nH]1,0.01 to 0.05 µM
5,COc1cc2c(N3CCOc4ccc(-c5ccc6nc(C)[nH]c6c5)cc4C3)ncnc2cc1Br,0.25 to 1 µM
6,CCNc1nc2ccc(-c3ccc4c(c3)CN(c3nc(C)nc5cc(O)ccc35)CCO4)cc2[nH]1,≤ 0.01 µM
7,CC1(C)CCc2ncnc(N3CCOc4ccc(-c5cnc(C#N)c(NS(C)(=O)=O)c5)cc4C3)c2C1,0.05 to 0.25 µM
8,COc1ccc(-c2ccc3c(c2)CN(c2nc(CN(C)C)nc4c2CC(C)(C)CC4)CCO3)cc1C(C)=O,0.25 to 1 µM
9,CC1(C)CCc2ncnc(N3CCOc4ccc(-c5cnc6[nH]c(CF)nc6c5)cc4C3)c2C1,0.01 to 0.05 µM
10,CCNc1nc2ccc(-c3ccc4c(c3)CN(c3nc(C)nc5ccccc35)CCO4)cc2[nH]1,0.01 to 0.05 µM
11,CN1CCC(CNS(=O)(=O)c2cc(-c3ccc4c(c3)CN(c3ncnc5c3CC(C)(C)CC5)CCO4)cnc2N)CC1,0.01 to 0.05 µM
12,COc1ccc2c(N3CCOc4ccc(-c5cnc6nc(N)[nH]c6c5)cc4C3)nc(C)nc2c1,≤ 0.01 µM
13,CN(C)Cc1nc2c(c(N3CCOc4ccc(-c5ccc(-c6ncc[nH]6)cc5)cc4C3)n1)CC(C)(C)CC2,≤ 0.01 µM
14,Cc1ncnc(N2CCOc3ccc(-c4ccc(C(=O)NC5CC5)cc4)cc3C2)c1Cc1ccc(F)cc1,0.25 to 1 µM
15,CC1(C)CCc2ncnc(N3CCOc4ccc(-c5cnc6[nH]ncc6c5)cc4C3)c2C1,0.01 to 0.05 µM
16,Cc1nc2cc(-c3ccc4c(c3)CN(c3ncnc(C)c3Cc3ccc(F)cc3)CCO4)cnc2[nH]1,0.01 to 0.05 µM
17,c1ccc2c(N3CCOc4ccc(-c5ccc6scnc6c5)cc4C3)ccnc2c1,0.25 to 1 µM
18,CC1(C)CCc2ncnc(N3CCOc4ccc(-c5cnc(N)c(S(=O)(=O)NCC6CCCNC6)c5)cc4C3)c2C1 (configuration not stated),0.01 to 0.05 µM
19,COc1ccc2c(N3CCOc4ccc(-c5cnc6sc(N)nc6c5)cc4C3)nc(CN(C)C)nc2c1,≤ 0.01 µM
20,COc1ccc2c(N3CCOc4ccc(-c5ccc(NC(C)=O)cc5)cc4C3)nc(C)nc2c1,0.25 to 1 µM
21,COc1ncc(-c2ccc3c(c2)CN(c2ncnc4c2CC(C)(C)CC4)CCO3)cc1NS(C)(=O)=O,≤ 0.01 µM
